Experimental data taken from patent US20250147039A1, “Compounds for complexation of rare earth elements and/or s-, p-, d- block metals, their coordination compounds, peptide conjugates, method of their preparation and use thereof” (USTAV ORGANICKE CHEMIE A BIOCHEMIE AV CR V.V.I., priority 2021, published 2025).

How the values were obtained:
[1] = Formation of 1,5-cz-[Ln(Lig)] from Lig and Ln^III ions (metal dependent click-zip), MOPS/NaOH buffer pH 7.0, analytical HPLC (Charts 1, 2); details: MOPS/NaOH buffer pH 7.0
[2] = Formation of 1,5-cz-[M(Lig)] from Lig and M^III ions (metal dependent click-zip) (Charts 4, 5); format: physicochemical; details: MOPS/NaOH buffer pH 7.0, TD728, TD827 in 50% i-PrOH; for conversion to 1,5-cz-[M(Lig)], Y^III: TD714 sum of two diastereoisomers

| conversion to 1,5-cz-[Ln(Lig)], Ce^III ([1]; after 1 week at 80° C.) | conversion to 1,5-cz-[Ln(Lig)], Ce^III ([1]; after 1 hour at 80° C.) | conversion to 1,5-cz-[Ln(Lig)], Dy^III ([1]; after 1 week at 80° C.) | conversion to 1,5-cz-[Ln(Lig)], Dy^III ([1]; after 1 hour at 80° C.) | conversion to 1,5-cz-[Ln(Lig)], Er^III ([1]; after 1 week at 80° C.) | conversion to 1,5-cz-[Ln(Lig)], Er^III ([1]; after 1 hour at 80° C.) | conversion to 1,5-cz-[Ln(Lig)], Eu^III ([1]; after 1 week at 80° C.) | conversion to 1,5-cz-[Ln(Lig)], Eu^III ([1]; after 1 hour at 80° C.) | conversion to 1,5-cz-[Ln(Lig)], Gd^III ([1]; after 1 week at 80° C.) | conversion to 1,5-cz-[Ln(Lig)], Gd^III ([1]; after 1 hour at 80° C.) | conversion to 1,5-cz-[Ln(Lig)], Ho^III ([1]; after 1 week at 80° C.) | conversion to 1,5-cz-[Ln(Lig)], Ho^III ([1]; after 1 hour at 80° C.) | conversion to 1,5-cz-[Ln(Lig)], La^III ([1]; after 1 week at 80° C.) | conversion to 1,5-cz-[Ln(Lig)], La^III ([1]; after 1 hour at 80° C.) | conversion to 1,5-cz-[Ln(Lig)], Lu^III ([1]; after 1 week at 80° C.) | conversion to 1,5-cz-[Ln(Lig)], Lu^III ([1]; after 1 hour at 80° C.) | conversion to 1,5-cz-[Ln(Lig)], Nd^III ([1]; after 1 week at 80° C.) | conversion to 1,5-cz-[Ln(Lig)], Nd^III ([1]; after 1 hour at 80° C.) | conversion to 1,5-cz-[Ln(Lig)], Pr^III ([1]; after 1 week at 80° C.) | conversion to 1,5-cz-[Ln(Lig)], Pr^III ([1]; after 1 hour at 80° C.) | also measured | Compound |
| --- | --- | --- | --- | --- | --- | --- | --- | --- | --- | --- | --- | --- | --- | --- | --- | --- | --- | --- | --- | --- | --- |
| 3% | 0% | 51% | 0% | 84% | 1% | 19% | 0% | 23% | 0% | 68% | 1% | 4% | 0% | 94% | 2% | 8% | 0% | 6% | 0% | conversion to 1,5-cz-[Ln(Lig)], Sm^III ([1]; after 1 week at 80° C.): 16%; conversion to 1,5-cz-[Ln(Lig)], Sm^III ([1]; after 1 hour at 80° C.): 0%; conversion to 1,5-cz-[Ln(Lig)], Tb^III ([1]; after 1 week at 80° C.): 37%; conversion to 1,5-cz-[Ln(Lig)], Tb^III ([1]; after 1 hour at 80° C.): 0%; conversion to 1,5-cz-[Ln(Lig)], Tm^III ([1]; after 1 week at 80° C.): 93%; conversion to 1,5-cz-[Ln(Lig)], Tm^III ([1]; after 1 hour at 80° C.): 1%; conversion to 1,5-cz-[Ln(Lig)], Yb^III ([1]; after 1 week at 80° C.): 95%; conversion to 1,5-cz-[Ln(Lig)], Yb^III ([1]; after 1 hour at 80° C.): 2%; conversion to 1,5-cz-[M(Lig)], Sc^III ([2]; 1 week at 80° C.): 4%; conversion to 1,5-cz-[M(Lig)], Y^III ([2]; 1 week at 80° C.): 63%; conversion to 1,5-cz-[M(Lig)], Sc^III ([2]; 1 hour at 80° C.): 0%; conversion to 1,5-cz-[M(Lig)], Y^III ([2]; 1 hour at 80° C.): 1% | [N-]=[N+]=NCc1cccc(CN2CCN(CC(=O)O)CCN(Cc3cccc(C#Cc4ccccc4)n3)CCN(CC(=O)O)CC2)n1 [TD944] |
| 20% | 0% | 81% | 1% | 95% | 2% | 59% | 1% | 61% | 1% | 89% | 2% | 22% | 0% | 99% | 6% | 40% | 0% | 33% | 0% | conversion to 1,5-cz-[Ln(Lig)], Sm^III ([1]; after 1 week at 80° C.): 55%; conversion to 1,5-cz-[Ln(Lig)], Sm^III ([1]; after 1 hour at 80° C.): 1%; conversion to 1,5-cz-[Ln(Lig)], Tb^III ([1]; after 1 week at 80° C.): 73%; conversion to 1,5-cz-[Ln(Lig)], Tb^III ([1]; after 1 hour at 80° C.): 1%; conversion to 1,5-cz-[Ln(Lig)], Tm^III ([1]; after 1 week at 80° C.): 98%; conversion to 1,5-cz-[Ln(Lig)], Tm^III ([1]; after 1 hour at 80° C.): 4%; conversion to 1,5-cz-[Ln(Lig)], Yb^III ([1]; after 1 week at 80° C.): 99%; conversion to 1,5-cz-[Ln(Lig)], Yb^III ([1]; after 1 hour at 80° C.): 5%; conversion to 1,5-cz-[M(Lig)], Sc^III ([2]; 1 week at 80° C.): 2%; conversion to 1,5-cz-[M(Lig)], Y^III ([2]; 1 week at 80° C.): 87%; conversion to 1,5-cz-[M(Lig)], Sc^III ([2]; 1 hour at 80° C.): 0%; conversion to 1,5-cz-[M(Lig)], Y^III ([2]; 1 hour at 80° C.): 2% | [N-]=[N+]=NCc1cccc(CN2CCN(CC(=O)O)CCN(Cc3cccc(C#CC45CC6CC(CC(C6)C4)C5)n3)CCN(CC(=O)O)CC2)n1 [TD992] |
| 4% | 0% | 70% | 10% | 88% | 26% | 28% | 3% | 33% | 3% | 79% | 16% | 4% | 0% | 98% | 63% | 11% | 1% | 10% | 0% | conversion to 1,5-cz-[Ln(Lig)], Sm^III ([1]; after 1 week at 80° C.): 22%; conversion to 1,5-cz-[Ln(Lig)], Sm^III ([1]; after 1 hour at 80° C.): 2%; conversion to 1,5-cz-[Ln(Lig)], Tb^III ([1]; after 1 week at 80° C.): 55%; conversion to 1,5-cz-[Ln(Lig)], Tb^III ([1]; after 1 hour at 80° C.): 6%; conversion to 1,5-cz-[Ln(Lig)], Tm^III ([1]; after 1 week at 80° C.): 94%; conversion to 1,5-cz-[Ln(Lig)], Tm^III ([1]; after 1 hour at 80° C.): 39%; conversion to 1,5-cz-[Ln(Lig)], Yb^III ([1]; after 1 week at 80° C.): 97%; conversion to 1,5-cz-[Ln(Lig)], Yb^III ([1]; after 1 hour at 80° C.): 53%; conversion to 1,5-cz-[M(Lig)], Sc^III ([2]; 1 week at 80° C.): 61%; conversion to 1,5-cz-[M(Lig)], Y^III ([2]; 1 week at 80° C.): 80%; conversion to 1,5-cz-[M(Lig)], Sc^III ([2]; 1 hour at 80° C.): 4%; conversion to 1,5-cz-[M(Lig)], Y^III ([2]; 1 hour at 80° C.): 16% | CC(C)(N)C#Cc1cccc(CN2CCN(CC(=O)O)CCN(Cc3cc(-c4ccccc4)cc(CN=[N+]=[N-])n3)CCN(CC(=O)O)CC2)n1 [TD1054] |
